This note sets out measurements from paper PMC10290954 (Nature Metabolism, 2023).

The Emax is the maximal effect, on the per cent scale that the assay sets.

For assay [1], the target named is T1, mouse GIP receptor (Mus musculus, UniProt Q0P543).
T1 sequence (Q0P543 19-460): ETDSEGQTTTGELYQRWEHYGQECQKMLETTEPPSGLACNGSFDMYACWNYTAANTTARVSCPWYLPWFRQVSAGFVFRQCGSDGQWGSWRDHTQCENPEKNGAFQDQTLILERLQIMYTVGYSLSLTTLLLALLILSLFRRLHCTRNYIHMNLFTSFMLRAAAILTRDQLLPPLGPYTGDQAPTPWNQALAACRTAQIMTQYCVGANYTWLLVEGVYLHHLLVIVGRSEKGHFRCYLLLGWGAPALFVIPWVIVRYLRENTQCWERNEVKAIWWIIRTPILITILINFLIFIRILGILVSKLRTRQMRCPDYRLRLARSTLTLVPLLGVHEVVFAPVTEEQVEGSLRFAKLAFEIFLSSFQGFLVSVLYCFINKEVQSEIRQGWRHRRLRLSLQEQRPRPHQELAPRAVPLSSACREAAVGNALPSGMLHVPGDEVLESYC
In words: [35S]GTPγS binding, mouse GIPR. It is filed as biochemical. Further details: expressed in transfected cells; host or cells: low-receptor-density clonal cell lines. The following applies: mGIPR GTPgS. Here is the method:
(§1) Methods for these assays have been previously described. In brief, for GTPγs binding, the potency of ligands to stimulate receptor-dependent elevation of the GTPγS-bound Gαs subunit was determined using membrane preparations from low-receptor-density receptor clonal cell lines. Reactions were incubated for 30 min at room temperature in white, clear-bottom microtiter plates, and per cent of the maximal response was calculated using control wells as a reference. Relative EC50 values were derived by nonlinear regression analysis using the per cent response versus the concentration of ligand and fitted to a four-parameter logistic equation using GraphPad Prism 7 software. For cAMP assays, kinetic cAMP assays were performed in low-density receptor cell clones transfected with the Glosensor 22 F vector (Promega). Cells were equilibrated for 5–20 min and then 20 μl of 10× ligand was added and a luminescence time course was collected.

In assay [2] the target is T1, mouse GIP receptor. In words: cAMP generation (Glosensor), mouse GIPR. The following applies: for HillSlope / Span (four parameter fit) / Top (four parameter fit) / Bottom (four parameter fit): mGIP-R HEK-293 cells, cAMP formation; for HillSlope: four parameter fit - normalized; for Span (four parameter fit) / Top (four parameter fit) / Bottom (four parameter fit): max signal = 100 nM human GIP(1-42)NH2, normalized. Format: cell-based. Also noted: expressed in transfected cells; host or cells: low-receptor-density clonal cell lines. Here is the method: as §1, with “collected. Ligand (10×) was titrated by manual serial dilution in DMSO followed by step-down into assay buffer.” for “collected.”
In general terms: Cyclic AMP is a second messenger, typically raised through Gs and lowered through Gi signalling.

Another assay deals with human islets. In words: Human islet perifusion, insulin secretion with Ex9 or hGIP(3-30) (Extended Data Fig. 2). Format: cell-based. The following applies: two donor sets, 30 nM tirzepatide, antagonist 1 μM. The protocol: Human islets were obtained from both the Alberta Diabetes Institute and the Integrated Islet Distribution Program. All islets were obtained from consenting donors. Details for the general perifusion protocol have been previously described[21] and are similar to the mouse perifusion protocol. […] Each set of human islets consisted of n = 3 for each condition. These were averaged to generate a single data point (Fig. 2c). Insulin values were measured with a Lumit insulin immunoassay (Promega) using an EnVision plate reader (PerkinElmer). For the glucagon secretion experiments (Fig. 3), the average glucagon values were calculated during control (minutes 35–45) and stimulated (minutes 55–65) conditions. All peptides were used at 30 nM concentrations based on previous work[16]. Amino acids were used at concentrations of 3 mM based on previous work[11]. Glucagon was measured with a Lumit Glucagon Immunoassay Kit (cat. no. CS3037A02; Promega) using an EnVision plate reader (PerkinElmer). Somatostatin was measured with an ELISA assay (cat. no. FEK-060-14; Phoenix Pharmaceuticals). All data are expressed as the measured concentration relative to both flow rate and islet number (insulin, ng ml^–1 × (1/200 µl ml^–1) × (1/75 islets); glucagon, pM × (1/200 µl ml^–1) × (1/75 islets); somatostatin, pg ml^–1 × (1/200 µl ml^–1) × (1/75 islets))[49]. Human pancreatic islets and pancreas tissue were isolated from deceased donors under ethical approval from the Human Research Ethics Board of the University of Alberta (Pro00013094, Pro00001754) and obtained from the NIDDK-funded Integrated Islet Distribution Program (IIDP) (RRID: SCR _014387). All donors’ families gave informed consent for the use of pancreatic tissue in research and were not financially compensated.
The integrated area under the curve (iAUC) was calculated for both glucose and tirzepatide stimulated insulin secretion using the value of the first time point as the baseline. All values are mean + /- SEM, n = 3/group. A one-way ANOVA with Tukey’s posthoc test was used. Source data

For assay [3], the target named is T2, mouse GIP receptor (mGIPR), cloned, in membranes of HEK cells (mouse) (UniProt Q0P543).
T2 sequence: T1 sequence (Q0P543 19-460)

The target of assay [4] is T3, mouse GIP receptor (mGIPR), transiently expressed in HEK293T cells for BRET (mouse) (UniProt Q0P543).
T3 sequence: T1 sequence (Q0P543 19-460)

Consider `CC[C@H](C)[C@H](NC(=O)[C@H](CO)NC(=O)[C@H](Cc1ccc(O)cc1)NC(=O)[C@H](CC(=O)O)NC(=O)[C@H](CO)NC(=O)[C@@H](NC(=O)[C@H](Cc1ccccc1)NC(=O)[C@@H](NC(=O)CNC(=O)[C@H](CCC(=O)O)NC(=O)[C@H](C)NC(=O)[C@@H](N)Cc1ccc(O)cc1)[C@@H](C)O)[C@@H](C)CC)C(=O)N[C@@H](C)C(=O)N[C@@H](CCSC)C(=O)N[C@@H](CC(=O)O)C(=O)N[C@@H](CCCCN)C(=O)N[C@H](C(=O)N[C@@H](Cc1c[nH]cn1)C(=O)N[C@@H](CCC(N)=O)C(=O)N[C@@H](CCC(N)=O)C(=O)N[C@@H](CC(=O)O)C(=O)N[C@@H](Cc1ccccc1)C(=O)N[C@H](C(=O)N[C@@H](CC(N)=O)C(=O)N[C@@H](Cc1c[nH]c2ccccc12)C(=O)N[C@@H](CC(C)C)C(=O)N[C@@H](CC(C)C)C(=O)N[C@@H](C)C(=O)N[C@@H](CCC(N)=O)C(=O)N[C@@H](CCCCN)C(=O)NCC(=O)N[C@@H](CCCCN)C(=O)N[C@@H](CCCCN)C(=O)N[C@@H](CC(N)=O)C(=O)N[C@@H](CC(=O)O)C(=O)N[C@@H](Cc1c[nH]c2ccccc12)C(=O)N[C@@H](CCCCN)C(=O)N[C@@H](Cc1c[nH]cn1)C(=O)N[C@@H](CC(N)=O)C(=O)N[C@H](C(=O)N[C@H](C(=O)N[C@@H](CCC(N)=O)C(N)=O)[C@@H](C)O)[C@@H](C)CC)C(C)C)[C@@H](C)CC` [hGIP], for which the Emax on mouse GIP receptor [1] (run of 2019-03-15) worked out at 91.9%; on mouse GIP receptor [1] (run of 2019-04-02), 91.5%; on mouse GIP receptor [1] (run of 2019-06-28), 93.8%; at mouse GIP receptor [1] (run of 2022-02-17), 93.1%.

Take `CC[C@H](C)[C@H](NC(=O)[C@H](CO)NC(=O)[C@H](Cc1ccc(O)cc1)NC(=O)[C@H](CC(=O)O)NC(=O)[C@H](CO)NC(=O)[C@@H](NC(=O)[C@H](Cc1ccccc1)NC(=O)[C@@H](NC(=O)CNC(=O)[C@H](CCC(=O)O)NC(=O)[C@H](C)NC(=O)[C@@H](N)Cc1ccc(O)cc1)[C@@H](C)O)[C@@H](C)CC)C(=O)N[C@@H](C)C(=O)N[C@@H](CCSC)C(=O)N[C@@H](CC(=O)O)C(=O)N[C@@H](CCCCN)C(=O)N[C@H](C(=O)N[C@@H](CCCNC(=N)N)C(=O)N[C@@H](CCC(N)=O)C(=O)N[C@@H](CCC(N)=O)C(=O)N[C@@H](CC(=O)O)C(=O)N[C@@H](Cc1ccccc1)C(=O)N[C@H](C(=O)N[C@@H](CC(N)=O)C(=O)N[C@@H](Cc1c[nH]c2ccccc12)C(=O)N[C@@H](CC(C)C)C(=O)N[C@@H](CC(C)C)C(=O)N[C@@H](C)C(=O)N[C@@H](CCC(N)=O)C(=O)N[C@@H](CCCNC(=N)N)C(=O)NCC(=O)N[C@@H](CCCCN)C(=O)N[C@@H](CCCCN)C(=O)N[C@@H](CO)C(=O)N[C@@H](CC(=O)O)C(=O)N[C@@H](Cc1c[nH]c2ccccc12)C(=O)N[C@@H](CCCCN)C(=O)N[C@@H](Cc1c[nH]cn1)C(=O)N[C@@H](CC(N)=O)C(=O)N[C@H](C(=O)N[C@H](C(=O)N[C@@H](CCC(N)=O)C(N)=O)[C@@H](C)O)[C@@H](C)CC)C(C)C)[C@@H](C)CC` [mouse GIP(1-42)NH2]: the maximal response (Emax) at mouse GIP receptor [2] (HEK293, read-out: Arthmetic Mean Emax) amounted to 103%. The HillSlope on mouse GIP receptor [2] (run 2022-10-04, replicate 1) turned out to be 0.8118; at mouse GIP receptor [2] (run 2022-10-04, replicate 2) it was 0.9861; on mouse GIP receptor [2] (run 2022-10-06, replicate 1), 0.7723; on mouse GIP receptor [2] (run 2022-10-06, replicate 2) it was 0.9288; on mouse GIP receptor [2] (run 2022-10-12), 1.095. The “Span (four parameter fit)” value at mouse GIP receptor [2] (run 2022-10-04, replicate 1) is listed as 112.9 Percent Max-Min; on mouse GIP receptor [2] (run 2022-10-04, replicate 2) it was 111.3 Percent Max-Min; on mouse GIP receptor [2] (run 2022-10-06, replicate 1), 105.7 Percent Max-Min; at mouse GIP receptor [2] (run 2022-10-06, replicate 2) it was 102 Percent Max-Min; on mouse GIP receptor [2] (run 2022-10-12) it was 97.15 Percent Max-Min. Moreover, the “Top (four parameter fit)” value was 112.9 Percent Max-Min at mouse GIP receptor [2] (run 2022-10-04, replicate 1); 106.4 Percent Max-Min at mouse GIP receptor [2] (run 2022-10-04, replicate 2); 100.3 Percent Max-Min on mouse GIP receptor [2] (run 2022-10-06, replicate 1); 99.51 Percent Max-Min on mouse GIP receptor [2] (run 2022-10-06, replicate 2); 95.87 Percent Max-Min at mouse GIP receptor [2] (run 2022-10-12). Besides, the “Bottom (four parameter fit)” value at mouse GIP receptor [2] (run 2022-10-06, replicate 1) is listed as -5.431 Percent Max-Min; at mouse GIP receptor [2] (run 2022-10-06, replicate 2) it was -2.463 Percent Max-Min; at mouse GIP receptor [2] (run 2022-10-12), -1.282 Percent Max-Min.

Regarding “hGIP(3-30): a different GIPR antagonist that has been previously characterized (ref 27) (EGTFISDYSIAMDKIHQQDFVNWLLAQK; Gastric inhibitory polypeptide; UniProt P09681 54-81, looked up, fragment)”, in the assay with human islets, the “Effect on tirzepatide-stimulated insulin secretion” value was “A similar outcome”.

In assay [3], “human glucose-dependent insulinotropic polypeptide (hGIP) (from UniProt P09681 52-93)” registered a [35S]GTPγS binding (G-protein activation), EC50 of 0.735 nM; a [35S]GTPγS binding (G-protein activation), Emax of 96.7%; a cAMP generation, EC50 of 0.046 nM. In assay [4], this compound came in with a Gs recruitment (ligand-induced BRET), EC50 of 153 nM and a Gs recruitment (ligand-induced BRET), Emax of 101%.
